According to patent publication EP1096004B1, “Pro-fragrance compounds” (THE PROCTER & GAMBLE COMPANY, priority 1996, dated 1997):

Assay: Pro-Fragrant Hydrolysis Test (hydrolysis half-life by UV/Vis spectroscopy)
Assay type: physicochemical
Conditions: acid hydrolysis at pH 0 (1N HCl), 90/10 dioxane/water, 30°C
Description: Hydrolysis half-life is the measurement used to determine the ease with which the pro-fragrance compound undergoes acid hydrolysis and thereby releases its fragrance component(s) upon exposure to acid conditions. […] Preferably, pro-fragrance of the invention has a half-life at pH 2 of less than 60 minutes. For granular detergents, the more reactive pro-fragrances, that is, those with half-life at […] of less than one minute, are most suitable, although those having a half-life of less than 60 minutes at pH 0 are also useful. […]
All measurements are carried out using a Hewlett Packard 8452 A Diode Array Spectrophotometer using quartz 1 cm path length cuvette cells. […] The pH's are measured using an Orion 230 A standardized with pH 4 and pH 7 buffers. […]
Pro-fragrance is weighed out in a 10.00 ml volumetric flask using an analytical balance (Mettler AE 200) Precision is 1/10 mg. […] Hydrolysis time is measured, starting upon addition of the acid. […] The absorbance of the pro-fragrance solution (At) is followed at a regular series of time intervals, and the cuvette is kept in the water-bath at the above-indicated temperature between measurements. […] The wavelength at which the hydrolysis is followed is chosen at the wavelength of the absorbance maximum of the parent aldehyde or ketone.
Reaction half-lifes are determined using conventional procedures. […]

CC(C)=CCCC(C)=CC(OC/C=C(\C)CCC=C(C)C)OC/C=C(\C)CCC=C(C)C [Example 1, Digeranyl Citral Acetal]
t 1/2 at 0 pH: less than one
